US20030087906A1, “NITROGEN SUBSTITUTED BIARYL PURINE DERIVATIVES AS POTENT ANTIPROLIFERATIVE AGENTS” (priority 2001, published 2003)
Several values for one entry are separate records, joined by “and”; a condition that tells them apart may be missing. Equal values may be shown once. Entries after “also recorded” stand apart in the source; their conditions may differ. Read-outs that look alike come from different tables or passages of the source.

Tests used:
CyclinB/cdk1 = target: T1, CyclinB/cdk1 (Homo sapiens, UniProt P06493); experiment: CyclinB/cdk1 protein kinase assay (histone H1 phosphorylation); assay type: biochemical; settings: complex immunopurified from HeLa cells; 15 μM ATP; replicate experiments
T1 construct: Monoclonal antibody against cyclinB (GNS1) is added to the supernatant; endogenous in cells
Method: HeLa cells are blocked at the G1/S border by culturing in the presence of 2 mM thymidine for 20 h. The cells are then rinsed 3×in phosphate buffered saline and resuspended in regular medium. After 4 h of culture, the mitotic blocker, nocodazole is added to a final concentration of 75 ng/ml. […] The lysate is then clarified by centrifugation at 10,000×g for 10 min. The supernatant is collected and diluted 1:5 with Lysis Buffer. Monoclonal antibody against cyclinB (GNS1) is added to the supernatant to a final concentration of 5 μg/ml and shaken at 4° C. for 2 h. The immune complexes are then collected by the addition of 200 μl of protein agarose beads for 1 h. The beads are washed 4×in lysis buffer and 1×in kinase assay buffer.
Duplicate assays were performed at each concentration.

CyclinE/cdk2 = CyclinE/cdk2 (Homo sapiens, UniProt P24941); experiment: CyclinE/cdk2 protein kinase assay (histone H1 phosphorylation); settings: 15 μM ATP, replicate experiments
CyclinA/cdk2 = CyclinA/cdk2 (Homo sapiens, UniProt P24941); experiment: CyclinA/cdk2 protein kinase assay (histone H1 phosphorylation); settings: IC50 CyclinA/cdk2, complex immunopurified from HeLa cells; 15 μM ATP; replicate experiments
HeLa S-3 cells = experiment: Inhibition of cell growth of HeLa cells (SRB); assay type: cell-based, human; settings: 2 days of treatment, replicate experiments
Method: Growth inhibition (GI50) values were measured with HeLa S-3 cells selected for growth on plastic. […] One day later, a control plate was fixed by addition of TCA to 5%. After five rinses with tap water the plate was air dried and stored at 4° C. Test compounds were added to the remaining plates at 10-fold dilutions between 0.01 and 100 μM. Two days later all plates were fixed as described above. Cells were then stained by the addition of 100 μl per well of 0.4% sulforhodamine B (SRB) in 1% acetic acid for 30 min at 4° C. Wells were then quickly rinsed 5×with acetic acid (1%) and allowed to air dry. The SRB was then solubilized by the addition of 100 μl per well of unbuffered 10 mM Tris base. Dye was quantified by measuring absorbance at 490 nm on a Molecular Devices kinetic microplate reader. Growth at each inhibitor concentration relative to the untreated control was calculated according to the following equation: percent growth=100×(T−To)/(C−To), where T was the average optical density (OD) of the test wells after 2 days of treatment, To was the average OD of the wells in the control plate on day 0 and C was the average OD of untreated wells. Plots of percent growth versus inhibitor concentration were used to determine the GI50.

[1] = tested on: Tumor Cells in Hollow Fibers; experiment: NCI Hollow Fiber Assay (in vivo evaluation); settings: for IP Score: IP fibers; for SC score: SC fibers
[2] = IC50 CyclinE/cdk2, complex immunopurified from HeLa cells

T1 sequence (P06493 whole entry): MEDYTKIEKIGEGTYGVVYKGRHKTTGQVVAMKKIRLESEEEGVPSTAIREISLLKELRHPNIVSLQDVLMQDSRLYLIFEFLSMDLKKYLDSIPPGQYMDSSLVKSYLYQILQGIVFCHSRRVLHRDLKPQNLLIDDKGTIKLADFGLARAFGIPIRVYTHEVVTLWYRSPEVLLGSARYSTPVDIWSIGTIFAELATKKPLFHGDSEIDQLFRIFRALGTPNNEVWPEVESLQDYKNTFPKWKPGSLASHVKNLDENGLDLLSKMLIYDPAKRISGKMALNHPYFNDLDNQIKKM
T1 sequence (P14635 whole entry partner): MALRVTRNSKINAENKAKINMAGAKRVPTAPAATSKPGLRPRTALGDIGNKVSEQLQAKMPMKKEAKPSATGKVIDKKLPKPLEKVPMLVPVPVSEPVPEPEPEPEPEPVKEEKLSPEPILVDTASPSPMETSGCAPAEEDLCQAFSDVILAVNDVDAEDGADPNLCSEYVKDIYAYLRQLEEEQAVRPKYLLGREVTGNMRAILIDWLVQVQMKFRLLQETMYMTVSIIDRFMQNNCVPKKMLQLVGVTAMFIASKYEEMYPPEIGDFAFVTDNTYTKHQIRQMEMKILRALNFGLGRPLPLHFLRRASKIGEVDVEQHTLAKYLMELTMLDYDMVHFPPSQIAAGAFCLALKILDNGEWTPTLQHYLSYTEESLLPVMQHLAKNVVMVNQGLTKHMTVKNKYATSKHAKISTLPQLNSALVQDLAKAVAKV

| SMILES | IC50 (CyclinB/cdk1) | IC50 (CyclinE/cdk2; [2]) | IC50 (CyclinA/cdk2) | other results |
| --- | --- | --- | --- | --- |
| CC(C)n1cnc2c(NCc3ccc(-c4ccccc4)cc3)nc(N[C@@H]3CCCC[C@H]3N)nc21 (racemic) [Compound 58] | 12 µM | 2 µM and 4 µM | 11 µM and 4 µM | – |
| CC(C)n1cnc2c(NCc3ccc(-c4ccccc4)cc3)nc(N[C@@H]3CCCC[C@@H]3N)nc21 (racemic) [Compound 74] | 6 µM | 2 µM and 3 µM | 5 µM and 2 µM and 1 µM | – |
| CC[C@H](CO)Nc1nc(NCc2ccc(-c3cccc(NC(C)=O)c3)cc2)c2ncn(C(C)C)c2n1 [Compound 5] | 7 µM | – | – | GI50 (HeLa S-3 cells; Homo sapiens, HeLa S3, 48 h): 5 µM |
| Cc1ccc(-c2ccc(CNc3nc(N[C@H]4CC[C@H](N)CC4)nc4c3ncn4C(C)C)cc2)cc1 [Compound 13] | 4 µM | 2 µM and 0.3 µM and 0.9 µM | 4 µM and 1 µM and 0.8 µM | – |
| CC(C)n1cnc2c(NCc3ccc(-c4ccc(F)c(Cl)c4)cc3)nc(N[C@H]3CC[C@H](N)CC3)nc21 [Compound 14] | 7 µM | – | – | GI50 (HeLa S-3 cells): 0.03 µM |
| CC(C)n1cnc2c(NCc3ccc(-c4ccccc4)cc3)nc(NC3(CO)CCCC3)nc21 [Compound 53] | > 10 µM | 15 µM and 4 µM | > 10 µM | – |
| CC(=O)N[C@H]1CCCC[C@@H]1Nc1nc(NCc2ccc(-c3ccccc3)cc2)c2ncn(C(C)C)c2n1 [Compound 60] | > 10 µM | 12 µM and > 10 µM | – | GI50 (HeLa S-3 cells; Homo sapiens, HeLa S3, 48 h): 7 µM |
| CC(C)n1cnc2c(NCc3ccc(-c4ccccc4)cc3)nc(N[C@H]3CC[C@H](N)CC3)nc21 [Compound 75] | 6 µM | 3 µM | 3 µM | – |
| CC(C)n1cnc2c(NCc3ccc(-c4ccccc4)cc3)nc(N[C@H]3CCCC[C@H]3NC(=O)Nc3ccccc3)nc21 [Compound 80] | > 10 µM | > 10 µM and 4 µM and 2 µM | > 10 µM | – |
| CC(C)n1cnc2c(NCc3ccc(-c4ccccc4)nc3)nc(N[C@H]3CC[C@H](N)CC3)nc21 [Compound 86] | 2 µM | – | 0.9 µM and 0.7 µM and 0.4 µM and 0.6 µM | Cell Types Killed [1]: OVCAR 3,; also recorded: OVCAR 5, H522; IP Score [1]: 38; SC score [1]: 0 |
| CC(C)n1cnc2c(NCc3ccc(-c4ccccn4)nc3)nc(N[C@H]3CC[C@H](N)CC3)nc21 [Compound 93] | 0.9 µM | 0.09 µM and 0.1 µM | 0.2 µM and 0.3 µM | GI50 (HeLa S-3 cells): 0.3 µM; Cell Types Killed [1]: OVCAR-3; IP Score [1]: 22; SC score [1]: 8 |
| CC(=O)N[C@H]1CC[C@H](Nc2nc(NCc3ccc(-c4ccccn4)nc3)c3ncn(C(C)C)c3n2)CC1 [Compound 94] | 0.4 µM | 0.3 µM | 0.6 µM and 0.2 µM | GI50 (HeLa S-3 cells; Homo sapiens, HeLa S3, 48 h): 0.1 µM; Cell Types Killed [1]: COLO205,; also recorded: OVCAR-3, H522; IP Score [1]: 22; SC score [1]: 2 |
| CC(C)n1cnc2c(NCc3ccc(-c4cccc(F)c4)cc3)nc(N[C@H]3CC[C@H](N)CC3)nc21 [Compound 95] | 4 µM | – | – | – |
| CC(=O)N[C@H]1CC[C@H](Nc2nc(NCc3ccc(-c4cccc(F)c4)cc3)c3ncn(C(C)C)c3n2)CC1 [Compound 96] | 6 µM | 4 µM | 8 µM | – |
| CC(C)n1cnc2c(NCc3ccc(-c4ccc(Cl)cc4)cc3)nc(N[C@H]3CC[C@H](N)CC3)nc21 [Compound 98] | > 10 µM | – | – | – |
| CC(=O)N[C@H]1CC[C@H](Nc2nc(NCc3ccc(-c4ccc(Cl)cc4)cc3)c3ncn(C(C)C)c3n2)CC1 [Compound 99] | > 10 µM | 9 µM | > 10 µM | GI50 (HeLa S-3 cells; Homo sapiens, HeLa S3, 48 h): 5 µM |
| CC(=O)N[C@H]1CC[C@H](Nc2nc(NCc3ccc(-c4ccc(F)c(Cl)c4)cc3)c3ncn(C(C)C)c3n2)CC1 [Compound 100] | > 10 µM | 4 µM | > 10 µM | GI50 (HeLa S-3 cells; Homo sapiens, HeLa S3, 48 h): 0.6 µM |

| SMILES | IC50 (CyclinB/cdk1) | IC50 (CyclinE/cdk2; [2]) | IC50 (CyclinA/cdk2) | other results |
| --- | --- | --- | --- | --- |
| CC(C)n1cnc2c(NCc3ccc(-c4ccc(F)cc4)cc3)nc(N[C@H]3CC[C@H](N)CC3)nc21 [Compound 101] | 4 µM | – | – | – |
| CC(C)n1cnc2c(NCc3ccc(-c4cccnc4)cc3)nc(N[C@H]3CC[C@H](N)CC3)nc21 [Compound 103] | 1 µM | 0.2 µM | 0.6 µM and 0.7 µM | Cell Types Killed [1]: OVCAR 3,; also recorded: OVCAR 5, H522,; also recorded: MDA-MB-435,; also recorded: SF295; IP Score [1]: 38; SC score [1]: 6 |
| CC(=O)N[C@H]1CC[C@H](Nc2nc(NCc3ccc(-c4cccnc4)cc3)c3ncn(C(C)C)c3n2)CC1 [Compound 104] | 2 µM | 1 µM | 7 µM and 8 µM | GI50 (HeLa S-3 cells; Homo sapiens, HeLa S3, 48 h): 0.2 µM |
| CC(=O)N[C@H]1CC[C@H](Nc2nc(NCc3ccc(-c4cccc(Cl)c4)cc3)c3ncn(C(C)C)c3n2)CC1 [Compound 110] | – | 2 µM | 0.6 µM | GI50 (HeLa S-3 cells): 0.02 µM; Cell Types Killed [1]: OVCAR-3; IP Score [1]: 14; SC score [1]: 0 |
| CC(=O)N[C@H]1CC[C@H](Nc2nc(NCc3ccc(-c4ccsc4)nc3)c3ncn(C(C)C)c3n2)CC1 [Compound 124] | – | 0.8 µM | 2 µM | Cell Types Killed [1]: OVCAR-3; IP Score [1]: 28; SC score [1]: 0 |
| CCn1cnc2c(Nc3cccc(Cl)c3)nc(N[C@H]3CCCC[C@H]3N)nc21 [Compound 125, reference compound] | 0.6 µM | 0.1 µM | 1 µM | GI50 (HeLa S-3 cells; Homo sapiens, HeLa S3, 48 h): 3 µM |
| CC(C)n1cnc2c(NCc3cccnc3)nc(N[C@@H]3CCCC[C@@H]3N)nc21 [Compound 126, reference compound] | 2 µM and 0.2 µM | 0.06 µM | 0.6 µM and 0.8 µM | IC50 (CyclinE/cdk2; read-out: IC50 CyclinE/cdk2, complex immunopurified from HeLa cells): 0.06 µM |
| CC(=O)N[C@H]1CC[C@H](Nc2nc(NCc3cccc(-c4ccccc4)c3)c3ncn(C(C)C)c3n2)CC1 [Compound 135] | – | – | – | melting point: 183 to 185 °C |
| CCn1cnc2c(NCc3ccc(-c4ccccc4)cc3)nc(N[C@H]3CC[C@H](N)CC3)nc21 [Compound 137] | – | – | – | melting point: 175 to 182 °C |
| CCCn1cnc2c(NCc3ccc(-c4ccccc4)cc3)nc(N[C@H]3CC[C@H](N)CC3)nc21 [Compound 142] | – | – | – | melting point: 133 to 138 °C |
| N[C@H]1CC[C@H](Nc2nc(NCc3ccc(-c4ccccc4)cc3)c3ncn(C4CCCC4)c3n2)CC1 [Compound 144] | – | – | – | melting point: 144 to 146 °C |
| C=CCn1cnc2c(NCc3ccc(-c4ccccc4)cc3)nc(N[C@H]3CC[C@H](N)CC3)nc21 [Compound 146] | – | – | – | melting point: 111 to 114 °C |
| Cc1cc(C)cc(-c2ccc(CNc3nc(N[C@H]4CC[C@H](N)CC4)nc4c3ncn4C(C)C)cc2)c1 [Compound 149] | – | – | – | melting point: 86 to 90 °C |
| CC(=O)N[C@H]1CC[C@H](Nc2nc(NCc3ccc(-c4cc(C)cc(C)c4)cc3)c3ncn(C(C)C)c3n2)CC1 [Compound 150] | – | – | – | GI50 (HeLa S-3 cells; Homo sapiens, HeLa S3, 48 h): 0.3 µM; melting point: 207 to 210 °C |
| CCCN[C@H]1CC[C@H](Nc2nc(NCc3ccc(-c4ccc(C)s4)cc3)c3ncn(C(C)C)c3n2)CC1 [Compound 159] | – | – | – | melting point: 150 to 155 °C |
| CC(=O)N[C@H]1CC[C@H](Nc2nc(NCc3ccc(-c4cccc(CN)c4)cc3)c3ncn(C(C)C)c3n2)CC1 [Compound 223] | – | – | – | melting point: 200 to 206 °C |
